Test results taken from paper PMC6691786, “In vitro anticancer potentiality and molecular modelling study of novel amino acid derivatives based on N^1,N^3-bis-(1-hydrazinyl-1-oxopropan-2-yl) isophthalamide” (Journal of Enzyme Inhibition and Medicinal Chemistry, 2019).
Entries after “also recorded” stand apart in the source; their conditions may differ.

Assays:
[1] = system: HCT-116 cell line; experiment: MTT cytotoxicity assay, colon carcinoma; format: cell-based; details: Homo sapiens; for inhibition at 100 µM: HCT-116, at 100 µM; for IC50: HCT-116, MTT, 48-h incubation, read-out: IC50 (mean ± SD)
Procedure: (§1) Human colon carcinoma (HCT-116 cell line), human lung carcinoma (A-549), human breast carcinoma (MCF-7 cell line) and human skin normal cell line (BJ-1) were obtained from Karolinska Center, Department of Oncology and Pathology, Karolinska Institute and Hospital, Stockholm, Sweden. IC50 values were performed using SPSS computer program (SPSS for windows, statistical analysis software package/version 9/1989 SPSS Inc., Chicago, IL).
(§2) The procedure was done in laminar air flow cabinet bio safety class II level. Culturing and sub culturing were carried out according to Thabrew et al.[32]. Doxorubicin was used as a positive control. DMSO used as negative control. Cell Viability Assay was done according to Selim et al.[33] as described by Mosmann et al.[34]. The cells were seeded at concentration of 10 × 10^3 cells per well in case of MCF-7, 20 × 10^3 cells/well in case of HCT-116 cell lines using 96-well plates at 37 °C. After 48-h incubation, the medium was aspirated and 40 μl MTT salt (2.5 mg/ml) were added and further incubated for 4 h. About 200 μl 10% sodium dodecyl sulphate (SDS) was added. The absorbance was measured at 595 nm.

[2] = system: A-549 cell line; experiment: MTT cytotoxicity assay, lung carcinoma; format: cell-based; details: Homo sapiens, A549; for inhibition at 100 µM: A-549, at 100 µM
Procedure: as §1, §2

[3] = system: MCF-7 cell line; experiment: MTT cytotoxicity assay, breast carcinoma; format: cell-based; details: Homo sapiens, MCF7; for inhibition at 100 µM: MCF-7, at 100 µM
Procedure: as §1, §2

[4] = system: HCT-116, A-549 and MCF-7 cell lines; experiment: Preliminary cytotoxicity screen on the three tumour cell lines (MTT); format: cell-based, human; details: for inhibition at 100 µM: Homo sapiens, range over HCT-116, A-549, MCF-7, read-out: % of inhibition towards the three tested cancer cell lines; for cytotoxic activity (in words, SAR): HCT-116, A-549, MCF-7, compared with related derivatives
Procedure: as §1, §2

[5] = system: p53; experiment: p53 level ELISA in MCF-7 cells; format: cell-based, human; details: compound at IC50 for 24 h, compared to control
Procedure: Human p53 present in the sample or standard binds to antibodies adsorbed to the microwells. A biotin-conjugated is added. After incubation and dispense of unbound biotin-conjugated streptavidin HRP is added. The reaction is terminated by addition of acid and absorbance is measured at 450 nm[37].

[6] = target: CDK-2 (Homo sapiens, UniProt P24941); experiment: In vitro kinase inhibition ELISA assay; format: biochemical; details: CDK-2 kinase, read-out: IC50 (mean ± SD)
[7] = system: tubulin beta (TUBb); experiment: ELISA kit for tubulin beta (TUBb) in MCF-7 cells; format: cell-based, human; details: in comparison with colchicine
Procedure: MCF-7 cells were inoculated at concentration 1.2–1.8 × 10,000 cells/well using DMEM (supplemented with 10% FBS and 1% penicillin–streptomycin). Tested compound added for 18–24 h before the enzyme assay for Tubulin. Avidin conjugated to HRP is added to each microplate well and incubated. […] Sulphuric acid solution added to terminate enzymatic reaction. Colour change is measured spectrophotometrically at a wavelength of 450 nm ± 10 nm[39].

[8] = system: BCL-2; experiment: BCL-2 level ELISA in MCF-7 cells; format: cell-based, human; details: compound at IC50 for 24 h, compared to control
Procedure: BCL-2 in the samples and standards were estimated according to Barbareschi et al.. A biotin-conjugated antibody was added followed by streptavidin-HRP. The reaction is then terminated by addition of acid and absorbance was measured at 450 nm.

[9] = system: CASP-7; experiment: Human caspase-7 (CASP-7) estimation ELISA in MCF-7 cells; format: cell-based
Procedure: The micro ELISA plate provided in this kit pre-coated with CASP7-specific antibody. A biotinylated CASP7 antibody and Avidin–HRP conjugate was added. Aspire the excess components. The substrate solution was added wells that contain CASP7, biotinylated detection antibody and Avidin–HRP conjugate will appear blue in colour. The colour turns yellow followed the addition of sulphuric acid solution. The optical density (OD) was measured at a wavelength of 450 nm ± 2 nm[38].

[10] = target: c-kit (Homo sapiens, UniProt P10721); experiment: In vitro kinase inhibition ELISA assay; format: biochemical; details: read-out: IC50 (mean ± SD)
Sequence of c-kit (P10721 26-976): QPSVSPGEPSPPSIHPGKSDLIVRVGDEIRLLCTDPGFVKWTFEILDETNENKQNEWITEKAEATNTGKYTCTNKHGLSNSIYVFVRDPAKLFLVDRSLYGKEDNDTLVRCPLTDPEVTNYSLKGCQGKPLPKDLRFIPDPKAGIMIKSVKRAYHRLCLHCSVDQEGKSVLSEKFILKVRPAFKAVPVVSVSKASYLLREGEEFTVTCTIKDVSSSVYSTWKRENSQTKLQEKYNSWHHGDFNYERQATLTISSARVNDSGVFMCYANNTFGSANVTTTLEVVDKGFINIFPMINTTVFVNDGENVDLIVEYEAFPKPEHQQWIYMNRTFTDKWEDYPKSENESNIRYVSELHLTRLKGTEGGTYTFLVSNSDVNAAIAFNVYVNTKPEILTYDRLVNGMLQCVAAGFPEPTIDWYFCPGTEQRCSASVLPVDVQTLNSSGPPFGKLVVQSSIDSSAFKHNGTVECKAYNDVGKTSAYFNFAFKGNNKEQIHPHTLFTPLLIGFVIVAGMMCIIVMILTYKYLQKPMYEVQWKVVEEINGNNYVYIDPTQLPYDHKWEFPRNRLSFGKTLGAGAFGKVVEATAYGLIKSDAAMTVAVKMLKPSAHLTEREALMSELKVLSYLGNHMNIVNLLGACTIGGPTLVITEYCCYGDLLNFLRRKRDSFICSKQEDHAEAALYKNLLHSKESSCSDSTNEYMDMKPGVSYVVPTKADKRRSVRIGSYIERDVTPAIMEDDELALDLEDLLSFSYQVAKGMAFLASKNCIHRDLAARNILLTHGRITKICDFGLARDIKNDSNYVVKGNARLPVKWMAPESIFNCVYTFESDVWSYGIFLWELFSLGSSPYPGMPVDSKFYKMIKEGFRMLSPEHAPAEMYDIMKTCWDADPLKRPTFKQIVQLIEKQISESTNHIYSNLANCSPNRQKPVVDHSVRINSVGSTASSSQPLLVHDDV

[11] = target: VEGFR-2 (Homo sapiens, UniProt P35968); experiment: In vitro kinase inhibition ELISA assay; format: biochemical; details: VEGFR-2 kinase, read-out: IC50 (mean ± SD)
Sequence of VEGFR-2 (P35968 20-1356): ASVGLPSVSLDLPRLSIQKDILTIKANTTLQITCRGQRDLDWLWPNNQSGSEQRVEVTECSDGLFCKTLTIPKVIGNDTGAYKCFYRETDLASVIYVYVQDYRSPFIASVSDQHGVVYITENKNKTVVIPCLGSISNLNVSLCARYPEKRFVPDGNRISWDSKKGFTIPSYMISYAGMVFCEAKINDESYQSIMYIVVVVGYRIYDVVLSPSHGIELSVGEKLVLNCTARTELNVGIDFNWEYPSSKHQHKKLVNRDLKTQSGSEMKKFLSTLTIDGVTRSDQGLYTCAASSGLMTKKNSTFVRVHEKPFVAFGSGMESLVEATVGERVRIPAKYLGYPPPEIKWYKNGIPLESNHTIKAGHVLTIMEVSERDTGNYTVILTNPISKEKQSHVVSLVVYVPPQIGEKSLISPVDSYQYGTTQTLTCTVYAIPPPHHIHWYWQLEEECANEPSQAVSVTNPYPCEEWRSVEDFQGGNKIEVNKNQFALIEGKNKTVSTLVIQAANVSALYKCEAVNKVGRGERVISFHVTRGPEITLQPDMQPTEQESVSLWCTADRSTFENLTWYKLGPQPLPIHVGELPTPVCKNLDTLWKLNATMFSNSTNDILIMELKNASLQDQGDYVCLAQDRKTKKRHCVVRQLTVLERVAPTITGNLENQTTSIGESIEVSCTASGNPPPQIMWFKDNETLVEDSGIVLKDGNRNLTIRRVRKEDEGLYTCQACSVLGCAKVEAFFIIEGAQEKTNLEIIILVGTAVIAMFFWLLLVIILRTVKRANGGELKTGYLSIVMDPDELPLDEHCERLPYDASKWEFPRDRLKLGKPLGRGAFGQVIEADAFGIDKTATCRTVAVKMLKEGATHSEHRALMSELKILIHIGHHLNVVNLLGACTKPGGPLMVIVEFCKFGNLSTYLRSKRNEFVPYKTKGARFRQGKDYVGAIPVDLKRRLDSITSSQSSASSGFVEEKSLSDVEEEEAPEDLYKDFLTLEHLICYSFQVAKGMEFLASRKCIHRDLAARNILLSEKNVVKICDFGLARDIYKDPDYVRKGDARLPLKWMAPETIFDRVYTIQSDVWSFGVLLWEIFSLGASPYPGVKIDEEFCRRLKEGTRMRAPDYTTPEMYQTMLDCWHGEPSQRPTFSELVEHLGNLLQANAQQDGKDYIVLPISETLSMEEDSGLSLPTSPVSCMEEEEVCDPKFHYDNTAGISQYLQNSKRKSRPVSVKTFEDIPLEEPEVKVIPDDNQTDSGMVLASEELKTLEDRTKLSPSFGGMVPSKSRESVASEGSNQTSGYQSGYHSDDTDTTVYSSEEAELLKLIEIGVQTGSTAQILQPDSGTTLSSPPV

[12] = system: BJ-1 normal skin fibroblasts cell line; experiment: MTT cytotoxicity on normal skin cell line; format: cell-based, human; details: BJ-1 normal skin cells, at 100 µM
Procedure: as §1, §2

[13] = system: MCF-7 cells; experiment: DNA fragmentation by DPA assay; format: cell-based, human
Procedure: DNA fragmentation of the cells was assayed, as previously described[40]^,[41]. Briefly, the cells were lysed with 20 mM EDTA, 0.5% (v/v) Triton X-100, and […] Tris (pH 8.0) for 15 min on ice. The cells were then centrifuged for 20 min, at 27,000×g, to separate intact chromatin from DNA fragments. The amount of DNA was measured by using a diphenylamine reagent. The optical density is measured at 600 nm.

[14] = target: EGFR (Homo sapiens, UniProt P00533); experiment: In vitro kinase inhibition ELISA assay; format: biochemical; details: read-out: IC50 (mean ± SD)
Sequence of EGFR (P00533 25-1210): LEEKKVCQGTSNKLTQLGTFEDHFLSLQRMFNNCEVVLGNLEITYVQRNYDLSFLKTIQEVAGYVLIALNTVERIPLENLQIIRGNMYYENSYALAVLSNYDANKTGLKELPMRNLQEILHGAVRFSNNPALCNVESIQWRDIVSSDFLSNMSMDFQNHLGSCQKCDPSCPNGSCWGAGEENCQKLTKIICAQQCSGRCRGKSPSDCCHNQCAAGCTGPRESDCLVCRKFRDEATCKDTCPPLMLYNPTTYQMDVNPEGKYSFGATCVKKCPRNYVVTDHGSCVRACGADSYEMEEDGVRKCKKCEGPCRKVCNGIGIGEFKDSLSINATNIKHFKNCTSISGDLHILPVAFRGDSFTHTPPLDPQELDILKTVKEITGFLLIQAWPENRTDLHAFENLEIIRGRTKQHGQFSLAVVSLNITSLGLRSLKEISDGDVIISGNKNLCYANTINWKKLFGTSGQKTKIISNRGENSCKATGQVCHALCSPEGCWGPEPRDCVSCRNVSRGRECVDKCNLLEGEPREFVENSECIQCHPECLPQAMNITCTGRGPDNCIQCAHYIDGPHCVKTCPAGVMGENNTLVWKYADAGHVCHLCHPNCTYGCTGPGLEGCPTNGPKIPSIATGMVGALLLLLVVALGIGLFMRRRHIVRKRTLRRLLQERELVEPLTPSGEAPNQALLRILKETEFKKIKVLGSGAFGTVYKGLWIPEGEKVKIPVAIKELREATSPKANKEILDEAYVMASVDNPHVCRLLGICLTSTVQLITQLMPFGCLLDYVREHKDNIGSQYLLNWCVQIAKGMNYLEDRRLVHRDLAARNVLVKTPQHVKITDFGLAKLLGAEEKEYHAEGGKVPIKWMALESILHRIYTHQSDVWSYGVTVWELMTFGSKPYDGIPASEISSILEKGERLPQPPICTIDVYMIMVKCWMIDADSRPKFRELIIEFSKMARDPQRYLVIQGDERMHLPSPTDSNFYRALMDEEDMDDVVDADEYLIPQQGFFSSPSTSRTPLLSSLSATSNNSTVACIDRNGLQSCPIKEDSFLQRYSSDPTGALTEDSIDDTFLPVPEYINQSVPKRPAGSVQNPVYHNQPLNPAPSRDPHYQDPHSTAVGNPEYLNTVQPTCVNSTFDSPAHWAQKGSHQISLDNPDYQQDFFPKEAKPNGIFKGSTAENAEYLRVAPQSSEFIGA
Procedure: The in vitro enzyme inhibition assessment for compound 5 was performed at confirmatory diagnostic unit, Vacsera, Egypt.

[15] = system: Bax; experiment: Bax protein level ELISA in MCF-7 cells; format: cell-based, human; details: compound at IC50 for 24 h
Procedure: Bax protein levels were evaluated according to Onur et al.. Monoclonal antibody specific to Bax captured on the plate is added. After incubation, Strep avid in conjugated to Horseradish peroxidase (HRP) is added. The reaction is terminated by the addition of acid and optical density of the colour produced measured at 450 nm.

`CC(NC(=O)c1cccc(C(=O)NC(C)C(=O)NN=C2C(=O)Nc3ccc(Cl)cc32)c1)C(=O)NN=C1C(=O)Nc2ccc(Cl)cc21` (centres unmarked) [Compound 6, N^1-(1-(-2-(5-chloro-2-oxoindolin-3-ylidene)hydrazinyl)-1-oxopropan-2-yl)-N^3-(1-(-2-(5-chloro-2-oxoindolin-3-ylidene) hydrazinyl)-1-oxopropan-2-yl)isophthalamide] gave a melting point of 271 to 273 °C, an inhibition at 100 µM [1] of 33.1% and an inhibition at 100 µM [2] of 48.4%. It also gave an inhibition at 100 µM [3] of 19.6%.
With `CC(NC(=O)c1cccc(C(=O)NC(C)C(=O)NN2C(=O)CSC2c2ccc(Cl)cc2)c1)C(=O)NN1C(=O)CSC1c1ccc(Cl)cc1` (centres unmarked) [Compound 14, N^1,N^3-bis-(1-(2-(4-chlorophenyl)-4-oxothiazolidin-3-ylamino)-1-oxopropan-2-yl) isophthalamide] the melting point was 218 to 220 °C, the inhibition at 100 µM [4] was 72.5 to 98.3% and the IC50 ([2]; A-549, MTT, read-out: IC50 (mean ± SD)) was 41 nM.
`CC(NC(=O)c1cccc(C(=O)NC(C)c2n[nH]c(=S)o2)c1)c1n[nH]c(=S)o1` (centres unmarked) [Compound 7, N^1,N^3-bis (1-(5-thioxo-4,5-dihydro-1,3,4-oxadiazol-2-yl)ethyl) isophthalamide] gave a melting point of 132 to 134 °C, an inhibition at 100 µM [4] of 72.5 to 98.3% and an inhibition at 100 µM [3] of 77.5%.
With `COc1cccc2c1C(=O)c1c(O)c3c(c(O)c1C2=O)C[C@@](O)(C(=O)CO)C[C@@H]3O[C@H]1C[C@H](N)[C@H](O)[C@H](C)O1` [Doxorubicin, reference compound] the IC50 [1] was 65 nM.
`CC(NC(=O)c1cccc(C(=O)NC(C)C(=O)NN)c1)C(=O)NN` (centres unmarked) [Compound 4, N^1,N^3-bis-(1-hydrazinyl-1-oxopropan-2-yl) isophthalamide] gave a melting point of 232 to 234 °C, an inhibition at 100 µM [1] of 2.3% and an inhibition at 100 µM [2] of 0.9%. For the same compound, the inhibition at 100 µM [3] was 1.8%.
In the case of `CC(NC(=O)c1cccc(C(=O)NC(C)C(=O)NN=C[C@H](O)[C@@H](O)[C@H](O)CO)c1)C(=O)NN=C[C@H](O)[C@@H](O)[C@H](O)CO` (stereo partly drawn) [Compound 8, N^1,N^3-bis (1-oxo-1-(-2-((2S, 3 R, 4 R)-2,3,4,5-tetrahydroxypentylidene) hydrazinyl)propan-2-yl) isophthalamide], the “cytotoxic activity (in words, SAR)” value [4] is reported as “dramatic drop in the anticancer effect”.
With `COc1ccc(C=NNC(=O)C(C)NC(=O)c2cccc(C(=O)NC(C)C(=O)NN=Cc3ccc(OC)cc3)c2)cc1` (centres unmarked) [Compound 12, N^1,N^3-bis-(1-(-2-(4-methoxybenzylidene) hydrazinyl)-1-oxopropan-2-yl) isophthalamide] the melting point was 273 to 275 °C, the “cytotoxic activity (in words, SAR)” value [4] was “variable and noticeable increase in the cytotoxic activity” and the inhibition at 100 µM [4] was 72.5 to 98.3%. It also gave an IC50 ([3]; MCF-7, MTT, 48-h incubation, read-out: IC50 (mean ± SD)) of 51 nM.
For `CC(NC(=O)c1cccc(C(=O)NC(C)C(=O)NN=C[C@@H](O)[C@H](O)[C@H](O)CO)c1)C(=O)NN=C[C@@H](O)[C@H](O)[C@H](O)CO` (stereo partly drawn) [Compound 9, N^1,N^3-bis (1-oxo-1-(-2-((2R, 3S, 4R)-2,3,4,5-tetrahydroxypentylidene) hydrazinyl)propan-2-yl) isophthalamide], the “cytotoxic activity (in words, SAR)” value [4] was “dramatic drop in the anticancer effect”.
For `COc1ccc(C=NNC(=O)C(C)NC(=O)c2cccc(C(=O)NC(C)C(=O)NN=Cc3ccc(OC)c(OC)c3)c2)cc1OC` (centres unmarked) [Compound 13, N^1,N^3-bis-(1-(-2-(3,4-dimethoxybenzylidene) hydrazinyl)-1-oxopropan-2-yl) isophthalamide], the melting point was 277 to 279 °C and the “cytotoxic activity (in words, SAR)” value [4] was “reduction in the activity”.
For `CC(NC(=O)c1cccc(C(=O)NC(C)C(=O)N/N=C2/C(=O)Nc3ccccc32)c1)C(=O)N/N=C1\C(=O)Nc2ccccc21` (centres unmarked) [Compound 5, N^1-(1-oxo-1-(-2-(2-oxoindolin-3-ylidene) hydrazinyl)propan-2-yl)-N^3-(1-oxo-1-(-2-(2-oxoindolin-3-ylidene) hydrazinyl)propan-2-yl) isophthalamide], the p53 expression level [5] was “significant up-expression”, the IC50 [6] was 6240 ± 1210 nM and the melting point was 271 to 273 °C. The “effect on microtubule-polymer mass (tubulin polymerization, TubB)” value [7] was “moderate effect”, the BCL-2 expression level [8] was “down-expression” and the “level of active CASP-7” value [9] was “significant increase”. It also gave an IC50 [10] of 2850 ± 40 nM, an IC50 [11] of 3170 ± 1000 nM and an IC50 [1] of 14 nM. The inhibition at 100 µM [4] was 72.5 to 98.3%, the “% inhibition (cytotoxicity on normal cells)” value [12] was 32.6% and the “% of DNA fragmentation” value [13] was “remarkable % of DNA fragmentation”. For the same compound, the IC50 [14] was 780 ± 1250 nM, the Bax/BCL-2 ratio [15] was “significant elevation; also recorded: significantly elevated” and the Bax expression level ([15]; compared to control) was “significant up-expression”.
Compound `CC(NC(=O)c1cccc(C(=O)NC(C)C(=O)NN2C(=O)CSC2c2ccc(F)cc2)c1)C(=O)NN1C(=O)CSC1c1ccc(F)cc1` (centres unmarked) [Compound 15, N^1,N^3-bis-(1-(2-(4-fluorophenyl)-4-oxothiazolidin-3-ylamino)-1-oxopropan-2-yl) isophthalamide] has a melting point of 168 to 170 °C.
In the case of `COc1ccc(C2SCC(=O)N2NC(=O)C(C)NC(=O)c2cccc(C(=O)NC(C)C(=O)NN3C(=O)CSC3c3ccc(OC)cc3)c2)cc1` (centres unmarked), the melting point is reported as 242 to 244 °C.
In the case of `CC(NC(=O)c1cccc(C(=O)NC(C)C(=O)NN=Cc2ccc(F)cc2)c1)C(=O)NN=Cc1ccc(F)cc1` (centres unmarked) [Compound 11, N^1,N^3-bis-(1-(-2-(4-fluorobenzylidene) hydrazinyl)-1-oxopropan-2-yl) isophthalamide], the melting point is reported as 285 to 287 °C and the “cytotoxic activity (in words, SAR)” value [4] is reported as “variable and noticeable increase in the cytotoxic activity”.
In the case of `CC(NC(=O)c1cccc(C(=O)NC(C)C(=O)NN=Cc2ccc(Cl)cc2)c1)C(=O)NN=Cc1ccc(Cl)cc1` (centres unmarked) [Compound 10, N^1,N^3-bis-(1-(-2-(4-chlorobenzylidene) hydrazinyl)-1-oxopropan-2-yl) isophthalamide], the melting point is reported as 296 to 298 °C and the “cytotoxic activity (in words, SAR)” value [4] is reported as “variable and noticeable increase in the cytotoxic activity”.
